Tests used:
[1] = test system: Corn Earworm (CEW) (Helicoverpa zea); test: Bioassays on Corn Earworm (CEW), 128-well diet tray assay; format: in vivo; settings: 168 h, 50 μg/cm^2 test compound on artificial diet, second instar larvae, 25° C., five to seven days, average of eight wells, read-out: CEW Rating (% mortality)
Procedure, shortened: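 Second-instar larvae (one to five per well) placed on artificial diet treated with 50 μg/cm^2 compound in 90:10 acetone-water, dried; eight wells per compound. Held at 25° C, 14:10 light-dark, five to seven days; percent mortality averaged over wells.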

[2] = test system: Beet Armyworm (BAW) (Spodoptera exigua); test: Bioassays on Beet Armyworm (BAW), 128-well diet tray assay; format: in vivo; settings: 168 h, 50 μg/cm^2 test compound on artificial diet, second instar larvae, 25° C., five to seven days, average of eight wells, read-out: BAW Rating (% mortality)
Procedure, shortened: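 Second-instar larvae (1–5 per well) on artificial diet surface-treated with 50 μg/cm^2 compound applied in 90:10 acetone-water and dried; eight wells per compound. Held 5–7 days at 25° C., 14:10 light-dark. Percent mortality scored per well and averaged over eight wells.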

Row | SMILES | mortality at 50 µg/cm2 [1] [%] | mortality at 50 µg/cm2 [2] [%]
1 | O=C(CC(F)(F)F)NCc1ccc(/C=C/C(c2cc(Cl)c(Cl)c(Cl)c2)C(F)(F)F)cc1F (centres unmarked) [CC27] | 50 to 100 | 50 to 100
2 | O=C(NCc1ccc(/C=C/C(c2cc(Cl)cc(Cl)c2)C(F)(F)F)cc1)C1CC1 (centres unmarked) [CC2] | 50 to 100 | 50 to 100
3 | O=C(CC(F)(F)F)NCc1ccc(/C=C/C(c2cc(Cl)c(Cl)c(Cl)c2)C(F)(F)F)cc1Cl (centres unmarked) [CC10] | 50 to 100 | 50 to 100
4 | CC(C)(C)C(=O)NCc1ccc(/C=C/C(c2cc(Cl)c(Cl)c(Cl)c2)C(F)(F)F)cc1Cl (centres unmarked) [CC12] | 0 | 0
5 | O=C(CC(F)(F)F)NCc1ccc(/C=C/C(c2cc(Cl)c(Cl)c(Cl)c2)C(F)(F)F)cc1C(F)(F)F (centres unmarked) [CC24] | 50 to 100 | 50 to 100
6 | O=C(NCc1ccc(Cl)nc1)c1ccc(/C=C/C(c2cc(Cl)c(Cl)c(Cl)c2)C(F)(F)F)cc1C(F)(F)F (centres unmarked) [AC36] | 50 to 100 | 50 to 100
7 | CC(=O)NCc1ccc(/C=C/C(c2cc(Cl)cc(Cl)c2)C(F)(F)F)cc1Cl (centres unmarked) [CC7, (E)-N-(2-chloro-4-(3-(3,5-dichlorophenyl)-4,4,4-trifluorobut-1-en-1-yl)benzyl)acetamide] | 50 to 100 | 50 to 100
8 | CN(C)C(=O)NCc1ccc(/C=C/C(c2cc(Cl)c(Cl)c(Cl)c2)C(F)(F)F)cc1Cl (centres unmarked) [CC36, (E)-3-(2-chloro-4-(4,4,4-trifluoro-3-(3,4,5-trichlorophenyl)but-1-en-1-yl)benzyl)-1,1-dimethylurea] | 50 to 100 | 50 to 100
9 | FC(F)(F)C(/C=C/c1ccc(-n2cncn2)c(-c2ccncc2)c1)c1cc(Cl)cc(Cl)c1 (centres unmarked) [DC64] | 0 | 0
10 | CC(C)(C)OC(=O)NCc1ccc(/C=C/C(c2cc(Cl)c(Cl)c(Cl)c2)C(F)(F)F)cc1Cl (centres unmarked) [CC39] | 0 | 0
11 | FC(F)(F)C(/C=C/c1ccc(-n2cncn2)cc1)c1ccc(Cl)cc1 (centres unmarked) [DC4] | 0 | 50 to 100
12 | Cc1cc(/C=C/C(c2cc(Cl)cc(Cl)c2)C(F)(F)F)ccc1C(=O)N1CCCC1=O (centres unmarked) [AC8] | 0 to 50 | 0
13 | CN(C)NC(=O)CNC(=O)c1ccc(/C=C/C(c2cc(Cl)c(Cl)c(Cl)c2)C(F)(F)F)cc1Br (centres unmarked) [AC112] | 50 to 100 | 50 to 100
14 | Cc1cc(/C=C/C(c2cc(Cl)cc(Cl)c2)C(F)(F)F)ccc1C(=O)NCC(=O)NC1CC1 (centres unmarked) [AC40] | 50 to 100 | 50 to 100
15 | FC(F)(F)C(/C=C/c1ccc(-n2cncn2)cc1)c1ccc(Cl)cc1Cl (centres unmarked) [DC13] | 50 to 100 | 50 to 100
16 | Cc1cc(/C=C/C(c2cc(Cl)cc(Cl)c2)C(F)(F)F)ccc1C(=O)NNc1ccccc1F (centres unmarked) [AC17] | 50 to 100 | 50 to 100
17 | FC(F)(F)C(/C=C/c1ccc(-n2cncn2)cc1)c1cc(Cl)cc(Cl)c1 (centres unmarked) [DC1, (E)-1-(4-(3-(3,5-dichlorophenyl)-4,4,4-trifluorobut-1-en-1-yl)phenyl)-1H-1,2,4-triazole] | 50 to 100 | 50 to 100
18 | CCNC(=O)NCc1ccc(/C=C/C(c2cc(Cl)c(Cl)c(Cl)c2)C(F)(F)F)c2ccccc12 (centres unmarked) [CC49, (E)-1-ethyl-3-((4-(4,4,4-trifluoro-3-(3,4,5-trichlorophenyl)but-1-en-1-yl)naphthalen-1-yl)methyl)urea] | 0 | 0
19 | Cc1cc(/C=C/C(c2cc(Cl)cc(Cl)c2)C(F)(F)F)ccc1C(=O)NCc1nnc(C2CC2)o1 (centres unmarked) [AC89, (E)-N-((5-cyclopropyl-1,3,4-oxadiazol-2-yl)methyl)-4-(3-(3,5-dichlorophenyl)-4,4,4-trifluorobut-1-en-1-yl)-2-methylbenzamide] | 50 to 100 | 50 to 100
